Assay: xn = mol fraction of the nth substance listed
Details: 100 kPa

O=C(O)CCl + CCCC[N+](CCCC)(CCCC)CCCC.O=S(=O)([O-])O
Details | electrical conductivity, x2 = 0.333 [S/m] | electrical conductivity, x2 = 0.5 [S/m] | speed of sound, x2 = 0.333 [m/s] | speed of sound, x2 = 0.5 [m/s] | viscosity, x2 = 0.333 [mPa·s] | viscosity, x2 = 0.5 [mPa·s]
293.15 K | 0.012 | 0.0017 | 1539.9 | 1623.8 | – | –
298.15 K | 0.0189 | 0.0032 | 1523.1 | 1594.7 | – | –
303.15 K | – | 0.0053 | – | 1569.4 | – | –
308.15 K | – | 0.0037 | – | 1547 | – | –
313.15 K | 0.0508 | – | 1475.5 | – | 176.3 | –
318.15 K | 0.0669 | 0.0143 | 1460.9 | 1509 | 132.2 | 769
323.15 K | 0.0861 | 0.0226 | 1446.5 | 1492.3 | 101.9 | 546
328.15 K | 0.108 | 0.0306 | 1432.5 | 1476.3 | 81.5 | 396
333.15 K | 0.133 | – | 1418.6 | – | 64.29 | –

O=C(O)CCl + CCC[N+](CCC)(CCC)CCC.[Br-]
x2 = 0.333
Details | electrical conductivity [S/m] | speed of sound [m/s] | viscosity [mPa·s]
293.15 K | 0.0435 | 1550.2 | 178.6
298.15 K | 0.0673 | 1535.1 | 119.4
303.15 K | 0.0981 | 1520.3 | 84.3
313.15 K | 0.177 | 1491.4 | 45.76
318.15 K | 0.228 | 1477.4 | 34.88
323.15 K | 0.284 | 1463.4 | 27.18
333.15 K | 0.407 | 1436.1 | 17.67

— a compilation of properties of binary mixtures (doi:10.1016/j.molliq.2021.118393)
